Results reported in patent US20120029187A1, “HALOALKYLSULFONANILIDE DERIVATIVE” (Nissan Chemical Industries, Ltd., priority 2009, published 2012).

Experiments:
Type in all cases: in vivo
barnyardgrass [1] = experiment: Test Example 1: herbicidal effects in preemergence treatment under submerged conditions; conditions: dose 2.52 g/a
Description: (§1) Test on the Herbicidal Effects in Preemergence Treatment on Weeds Under Submerged Conditions
(§2) Alluvial soil was put in 1/30000-are styrol cups and admixed with water so that it was submerged at a depth of 4 cm. In each cup, seeds of barnyardgrass, bulrush and ducksalad were sown together, and rice seedlings at the 2.5-leaf stage were transplanted. On the same day as the seeding, emulsifiable concentrates containing compounds of the present invention formulated in accordance with Formulation Example 2 were applied to the water surfaces at predetermined doses after diluted with water. The cups were placed in a greenhouse at 25 to 30° C. to grow the plants. Three weeks after the application, the herbicidal effects against various plants were determined on the following evaluation scale.
(§3) 5 mortality of 90% or above (nearly complete death)
(§4) 4 mortality of at least 70% and less than 90%
(§5) 3 mortality of at least 40% and less than 70%
(§6) 2 mortality of at least 20% and less than 40%
(§7) 1 mortality of at least 5% and less than 20%
(§8) 0 mortality of less than 5% (almost ineffective)
(§9) A: barnyardgrass, B: bulrush, C: ducksalad, D: large crabgrass, E: giant foxtail, F: wild oat, G: water foxtail, H: Italian ryegrass, I: velvetleaf, J: common ragweed, K: redroot pigweed, L: common lambsquater, M: posumbu knotweed, N: common chickweed, O: beadstraw, a: transplanted rice, b: corn, c: soybean, d: direct-seeded rice, e: wheat, f: sugar beet.
(§10) The doses (g/a) represents the amounts in g per 1 are (a) applied after adjustment of concentration adjustment.

bulrush [2] = experiment: as above; conditions: dose 2.52 g/a
Description: as §1, §2, §3, §4, §5, §6, §7, §8, §9, §10

ducksalad [3] = experiment: as above; conditions: dose 2.52 g/a
Description: as §1, §2, §3, §4, §5, §6, §7, §8, §9, §10

transplanted rice = experiment: Test Example 1: preemergence treatment under submerged conditions, effect on crop; conditions: dose 2.52 g/a
Description: as §1, §2, §3, §4, §5, §6, §7, §8, §9, §10

barnyardgrass [4] = experiment: Test Example 2: herbicidal effects during the vegetation period under submerged conditions; conditions: treatment during the vegetation period under submerged conditions; dose 2.52 g/a
Method: (§11) Test on the Herbicidal Effects on Weeds During the Vegetation Period Under Submerged Conditions
(§12) Alluvial soil was put in 1/30000-are styrol cups and admixed with water so that it was submerged at a depth of 4 cm. In each cup, seeds of barnyardgrass, bulrush and ducksalad were sown together, and the cups were placed in a greenhouse at 25 to 30° C. to grow the plants. When the barnyardgrass, bulrush and ducksalad reached the 1- or 2-leaf stage, emulsifiable concentrates containing compounds of the present invention formulated in accordance with Formulation Example 2 were applied to the water surfaces at predetermined doses after diluted with water. Three weeks after the application, the herbicidal effects against various plants were determined on the same evaluation scale as in Test Example 1.
as §9, §10

bulrush [5] = experiment: as above; conditions: treatment during the vegetation period under submerged conditions; dose 2.52 g/a
Method: as §11, §12, §9, §10

ducksalad [6] = experiment: as above; conditions: treatment during the vegetation period under submerged conditions; dose 2.52 g/a
Method: as §11, §12, §9, §10

Italian ryegrass [7] = experiment: Test Example 3: herbicidal effects in soil treatment; conditions: dose 3.2 g/a
Description: (§13) Test on the Herbicidal Effects in Soil Treatment
(§14) Sterilized diluvial soil was put in plastic boxes with a length of 21 cm, a width of 13 cm and a depth of 7 cm, and seeds of barnyardgrass, large crabgrass, giant foxtail, wild oat, blackgrass, velvetleaf, common ragweed, redroot pigweed, common lambsquater, posumbu knotweed, common chickweed corn, soybean, rice, wheat and sugar beet were sown in spots and covered with an about 1.5 cm-thick soil layer. Emulsifiable concentrates containing compounds of the present invention formulated in accordance with Formulation Example 2 were uniformly applied to the soil surfaces at predetermined doses through a small sprayer after dilute with water. Three weeks after the application, the herbicidal effects against various plants were determined on the same evaluation scale as in Test Example 1.
as §9, §10

barnyardgrass [8] = experiment: as above; conditions: dose 3.2 g/a
Description: as §13, §14, §9, §10

common chickweed [9] = experiment: as above; conditions: dose 3.2 g/a
Description: as §13, §14, §9, §10

common lambsquater [10] = experiment: as above; conditions: dose 3.2 g/a
Description: as §13, §14, §9, §10

common ragweed [11] = experiment: as above; conditions: dose 3.2 g/a
Description: as §13, §14, §9, §10

giant foxtail [12] = experiment: as above; conditions: dose 3.2 g/a
Description: as §13, §14, §9, §10

large crabgrass [13] = experiment: as above; conditions: dose 3.2 g/a
Description: as §13, §14, §9, §10

posumbu knotweed [14] = experiment: as above; conditions: dose 3.2 g/a
Description: as §13, §14, §9, §10

redroot pigweed [15] = experiment: as above; conditions: dose 3.2 g/a
Description: as §13, §14, §9, §10

water foxtail [16] = experiment: as above; conditions: dose 3.2 g/a
Description: as §13, §14, §9, §10

Italian ryegrass [17] = experiment: Test Example 4: herbicidal effect in foliage treatment; conditions: dose 3.2 g/a, three weeks after the application
Description: (§15) Test on the Herbicidal Effect in Foliage Treatment
as §14, with “chickweed,” for “chickweed”, “The boxes were placed in a greenhouse at 25 to 30° C. to grow the plants. After 14 days, emulsifiable” for “Emulsifiable”, “foliage” for “soil surfaces”, “diluted” for “dilute”
as §9, §10

barnyardgrass [18] = experiment: as above; conditions: dose 3.2 g/a, three weeks after the application
Description: as §15
as §14, with “chickweed,” for “chickweed”, “The boxes were placed in a greenhouse at 25 to 30° C. to grow the plants. After 14 days, emulsifiable” for “Emulsifiable”, “foliage” for “soil surfaces”, “diluted” for “dilute”
as §9, §10

beadstraw = experiment: as above; conditions: dose 3.2 g/a, three weeks after the application
Description: as §15
as §14, with “chickweed,” for “chickweed”, “The boxes were placed in a greenhouse at 25 to 30° C. to grow the plants. After 14 days, emulsifiable” for “Emulsifiable”, “foliage” for “soil surfaces”, “diluted” for “dilute”
as §9, §10

common chickweed [19] = experiment: as above; conditions: dose 3.2 g/a, three weeks after the application
Description: as §15
as §14, with “chickweed,” for “chickweed”, “The boxes were placed in a greenhouse at 25 to 30° C. to grow the plants. After 14 days, emulsifiable” for “Emulsifiable”, “foliage” for “soil surfaces”, “diluted” for “dilute”
as §9, §10

common lambsquater [20] = experiment: as above; conditions: dose 3.2 g/a, three weeks after the application
Description: as §15
as §14, with “chickweed,” for “chickweed”, “The boxes were placed in a greenhouse at 25 to 30° C. to grow the plants. After 14 days, emulsifiable” for “Emulsifiable”, “foliage” for “soil surfaces”, “diluted” for “dilute”
as §9, §10

common ragweed [21] = experiment: as above; conditions: dose 3.2 g/a, three weeks after the application
Description: as §15
as §14, with “chickweed,” for “chickweed”, “The boxes were placed in a greenhouse at 25 to 30° C. to grow the plants. After 14 days, emulsifiable” for “Emulsifiable”, “foliage” for “soil surfaces”, “diluted” for “dilute”
as §9, §10

giant foxtail [22] = experiment: as above; conditions: dose 3.2 g/a, three weeks after the application
Description: as §15
as §14, with “chickweed,” for “chickweed”, “The boxes were placed in a greenhouse at 25 to 30° C. to grow the plants. After 14 days, emulsifiable” for “Emulsifiable”, “foliage” for “soil surfaces”, “diluted” for “dilute”
as §9, §10

large crabgrass [23] = experiment: as above; conditions: dose 3.2 g/a, three weeks after the application
Description: as §15
as §14, with “chickweed,” for “chickweed”, “The boxes were placed in a greenhouse at 25 to 30° C. to grow the plants. After 14 days, emulsifiable” for “Emulsifiable”, “foliage” for “soil surfaces”, “diluted” for “dilute”
as §9, §10

posumbu knotweed [24] = experiment: as above; conditions: dose 3.2 g/a, three weeks after the application
Description: as §15
as §14, with “chickweed,” for “chickweed”, “The boxes were placed in a greenhouse at 25 to 30° C. to grow the plants. After 14 days, emulsifiable” for “Emulsifiable”, “foliage” for “soil surfaces”, “diluted” for “dilute”
as §9, §10

redroot pigweed [25] = experiment: as above; conditions: dose 3.2 g/a, three weeks after the application
Description: as §15
as §14, with “chickweed,” for “chickweed”, “The boxes were placed in a greenhouse at 25 to 30° C. to grow the plants. After 14 days, emulsifiable” for “Emulsifiable”, “foliage” for “soil surfaces”, “diluted” for “dilute”
as §9, §10

velvetleaf = experiment: as above; conditions: dose 3.2 g/a, three weeks after the application
Description: as §15
as §14, with “chickweed,” for “chickweed”, “The boxes were placed in a greenhouse at 25 to 30° C. to grow the plants. After 14 days, emulsifiable” for “Emulsifiable”, “foliage” for “soil surfaces”, “diluted” for “dilute”
as §9, §10

water foxtail [26] = experiment: as above; conditions: dose 3.2 g/a, three weeks after the application
Description: as §15
as §14, with “chickweed,” for “chickweed”, “The boxes were placed in a greenhouse at 25 to 30° C. to grow the plants. After 14 days, emulsifiable” for “Emulsifiable”, “foliage” for “soil surfaces”, “diluted” for “dilute”
as §9, §10

Compound: CC1(C)CON(Cc2ccccc2NS(=O)(=O)C(F)(F)F)C(=O)O1 [III-10]
- A: barnyardgrass, herbicidal effect (evaluation scale 0-5) (barnyardgrass [1]): 5 (mortality of 90% or above (nearly complete death))
- B: bulrush, herbicidal effect (evaluation scale 0-5) (bulrush [2]): 5 (mortality of 90% or above (nearly complete death))
- C: ducksalad, herbicidal effect (evaluation scale 0-5) (ducksalad [3]): 5 (mortality of 90% or above (nearly complete death))
- a: transplanted rice, effect on crop (evaluation scale 0-5) (transplanted rice): 0 (mortality of less than 5% (almost ineffective))
- A: barnyardgrass, herbicidal effect (evaluation scale 0-5) (barnyardgrass [4]): 5 (mortality of 90% or above (nearly complete death))
- B: bulrush, herbicidal effect (evaluation scale 0-5) (bulrush [5]): 5 (mortality of 90% or above (nearly complete death))
- C: ducksalad, herbicidal effect (evaluation scale 0-5) (ducksalad [6]): 5 (mortality of 90% or above (nearly complete death))
- herbicidal effect, H: Italian ryegrass (Italian ryegrass [7]): 4 (mortality of at least 70% and less than 90%)
- herbicidal effect, A: barnyardgrass (barnyardgrass [8]): 5 (mortality of 90% or above (nearly complete death))
- herbicidal effect, N: common chickweed (common chickweed [9]): 4 (mortality of at least 70% and less than 90%)
- herbicidal effect, L: common lambsquater (common lambsquater [10]): 4 (mortality of at least 70% and less than 90%)
- herbicidal effect, J: common ragweed (common ragweed [11]): 5 (mortality of 90% or above (nearly complete death))
- herbicidal effect, E: giant foxtail (giant foxtail [12]): 4 (mortality of at least 70% and less than 90%)
- herbicidal effect, D: large crabgrass (large crabgrass [13]): 5 (mortality of 90% or above (nearly complete death))
- herbicidal effect, M: posumbu knotweed (posumbu knotweed [14]): 5 (mortality of 90% or above (nearly complete death))
- herbicidal effect, K: redroot pigweed (redroot pigweed [15]): 2 (mortality of at least 20% and less than 40%)
- herbicidal effect, G: water foxtail (water foxtail [16]): 5 (mortality of 90% or above (nearly complete death))
- H: Italian ryegrass, herbicidal effect (Italian ryegrass [17]): 4 (mortality of at least 70% and less than 90%)
- A: barnyardgrass, herbicidal effect (barnyardgrass [18]): 5 (mortality of 90% or above (nearly complete death))
- O: beadstraw, herbicidal effect (beadstraw): 5 (mortality of 90% or above (nearly complete death))
- N: common chickweed, herbicidal effect (common chickweed [19]): 1 (mortality of at least 5% and less than 20%)
- L: common lambsquater, herbicidal effect (common lambsquater [20]): 4 (mortality of at least 70% and less than 90%)
- J: common ragweed, herbicidal effect (common ragweed [21]): 5 (mortality of 90% or above (nearly complete death))
- E: giant foxtail, herbicidal effect (giant foxtail [22]): 1 (mortality of at least 5% and less than 20%)
- D: large crabgrass, herbicidal effect (large crabgrass [23]): 4 (mortality of at least 70% and less than 90%)
- M: posumbu knotweed, herbicidal effect (posumbu knotweed [24]): 5 (mortality of 90% or above (nearly complete death))
- K: redroot pigweed, herbicidal effect (redroot pigweed [25]): 4 (mortality of at least 70% and less than 90%)
- I: velvetleaf, herbicidal effect (velvetleaf): 3 (mortality of at least 40% and less than 70%)
- G: water foxtail, herbicidal effect (water foxtail [26]): 5 (mortality of 90% or above (nearly complete death))
